Reference: patent publication US12708671B2, “Nanometric pharmaceutical composition in the form of liposomes or nanoemulsion containing specific sequences of interference RNA” (UNIVERSIDADE FEDERAL DO RIO GRANDE DO SUL, priority 2019, dated 2026)

Experiments:
[1] = target: T1, ecto-5′-nucleotidase/CD73 (Rattus norvegicus, UniProt P21588); assay: ecto-5′-nucleotidase/CD73 enzymatic activity (AMP hydrolysis, malachite green) in C6 glioma; type: cell-based, Rattus norvergicus; details: for reduction of AMPase activity: C6 glioma cells silenced with NE/siRNA-CD73 complexes; for reduction of AMP hydrolysis: C6 glioma
T1 construct: endogenous in cells; host or cells: C6 glioma cells (rat)
T1 sequence (P21588 29-551): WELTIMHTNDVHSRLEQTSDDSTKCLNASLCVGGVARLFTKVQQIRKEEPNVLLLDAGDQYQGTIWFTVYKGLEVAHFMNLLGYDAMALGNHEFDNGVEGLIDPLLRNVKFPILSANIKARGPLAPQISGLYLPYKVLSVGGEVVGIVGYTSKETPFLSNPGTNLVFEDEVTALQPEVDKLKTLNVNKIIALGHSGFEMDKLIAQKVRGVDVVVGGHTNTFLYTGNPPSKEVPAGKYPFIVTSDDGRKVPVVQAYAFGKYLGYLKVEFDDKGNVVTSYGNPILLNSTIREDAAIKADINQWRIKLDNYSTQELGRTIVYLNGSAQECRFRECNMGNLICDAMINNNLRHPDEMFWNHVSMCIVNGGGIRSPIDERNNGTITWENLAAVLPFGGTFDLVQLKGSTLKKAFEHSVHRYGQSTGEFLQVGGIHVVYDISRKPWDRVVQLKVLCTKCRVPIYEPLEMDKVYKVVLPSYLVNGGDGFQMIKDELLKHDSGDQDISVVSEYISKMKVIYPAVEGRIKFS
Method: (§1) After treatment with AMPCP, the medium was removed, the cells were washed with PBS buffer solution (phosphate buffered saline, solution containing NaCl and NaHPO4), trypsinized with 200 μL of 0.25% trypsin solution and counted in a newbauer chamber. Once the cells were treated, enzyme activity, cell viability and immunocytochemistry assays were performed for CD73, in order to determine the reliability of the tests with the NE/siRNA or Lipofectamine®/siRNA complexes. The enzymatic activity of C6 cells was determined in an incubation medium (2 mM MgCl2, 120 mM NaCl, 5 mM KCl, 10 mM glucose, 20 mM HEPES [pH 7.4], and 2 mM AMP [adenosine monophosphate]) at 37° C. for 10 min, where the inorganic phosphate released by the action of CD73 was measured and the protein concentration was evaluated by the methods of malachite green and Coomassie Blue, respectively. Specific activity was expressed as μmol Pi released/min/mg protein.
Thus, it was evaluated how much the selective ecto-5′nucleotidase/CD73 inhibitor, AMPCP, could affect the proliferation of C6 glioma cells. The cells were exposed to increasing concentrations of AMPCP (1, 10 and 100 μM) and after 48 h cell proliferation was determined by counting in a newbauer chamber. In parallel, the activity of the enzyme ecto-5′nucleotidase/CD73 was analyzed by measuring the hydrolysis of AMP to adenosine (ADO) using the malachite green method.
For this purpose, specific siRNA-CD73 sequences were developed (siRNA-CD73-961 and siRNA-CD73-980; Table 1) and their functionality/specificity was assessed by transfecting C6 cells using Lipofectamine® according to the manufacturer's instructions. After 48 h of transfection, CD73 expression and enzymatic activity were evaluated by immunocytochemistry and AMP hydrolysis, respectively.
After the physical-chemical characterization and the optimization of the transfection, the effectiveness of the NE/siRNA-CD73-961 and NE/siRNA-CD73-980 complexes in silencing CD73 in C6 glioma was analyzed through immunocytochemical and AMP hydrolysis experiments.

U87MG glioma cells [2] = assay: U87MG cell viability with temozolomide after CD73 silencing; type: cell-based; details: Homo sapiens, U-87 MG, U87MG previously silenced for CD73 with siRNA-CD73-441, read-out: reduction of cell viability
Method: The participation of CD73 in chemoresistance was also investigated (FIG. 13). U87MG glioma cells were treated with temozolomide (100 μM) alone or in combination with siRNA-CD73-441. Temozolomide reduced cell viability by an average of 20% in glioma previously silenced for CD73.

CD73 [3] = assay: CD73 enzymatic activity in U87MG after silencing; type: cell-based, human
Method: (§2) The siRNA-CD73-441 sequence to silence human CD73 was evaluated for its efficiency.

CD73 [4] = assay: CD73 protein expression in U87MG after silencing; type: cell-based, human
Method: as §2

U87MG glioma cells [5] = assay: U87MG cell proliferation by counting in Neubauer chamber; type: cell-based, human
Method: To assess the impact of CD73 silencing on U87MG glioma cell proliferation in culture, cells were silenced using the siRNA-CD73-441 sequence and counted using a Neubauer chamber.

U87MG glioma cells [6] = assay: U87MG migration assay; type: cell-based, human
C6 glioma cells = assay: C6 glioma cell proliferation by counting in newbauer chamber; type: cell-based, rat; details: 100 μM, 48 h, compared to the control
Method: Primary astrocyte cultures were prepared from scratch. The cortex of newborn Wistar rats (1-2 days old) were removed and mechanically dissociated in a balanced saline solution free of Ca^+2 and Mg^+2 (pH 7.4), containing 137 mM NaCl, 5, 36 mM KCl, 0.27 mM Na2HPO4, 1.1 mM KH2PO4, and 6.1 mM glucose. After centrifugation at 1000 g for 5 min, the pellet was resuspended in culture medium (pH 7.6) containing […], 8.39 mM of HEPES buffer (4-(2-hydroxyethyl)-1-acid piperazine ethanesulfonic) (pH 7.6), 23.8 mM NaHCO3, 0.1% fungizone® (Amphotericin B, antifungal), 0.032% antibiotic garamycin and 10% FBS. […]
as §1, with “Once the cells were treated, enzyme activity, cell viability and immunocytochemistry assays were performed for CD73, in order to determine the reliability of the tests with the NE/siRNA or Lipofectamine®/siRNA complexes.” left out, “protein. […]” for “protein.”

## siRNA-CD73-961: interference RNA sequence for CD73 (gene ID: 58813, Rattus norvergicus), SEQ ID No: 1, Table 1 (GCCAUCAAAGCAGACAUUAACUAAUGUCUGCUUUGAUGGCUG; listed as RNA, chemistry not given here)
[1]
  reduction of AMPase activity: 70%

## Cn1nnc2c(C(N)=O)ncn2c1=O [Temozolomide, temozolomide]
U87MG glioma cells [2]
  cytotoxicity at 100 µM: 20%

## siRNA-CD73-980: interference RNA sequence for CD73 (gene ID: 58813, Rattus norvergicus), SEQ ID No: 2, Table 1 (ACCAGUGGAGGAUAAAAUUAGAAUUUUAUCCUCCACUGGUUA; listed as RNA, chemistry not given here)
[1]
  reduction of AMPase activity: 63%

## siRNA-CD73-441: siRNA sequence to silence human CD73, SEQ ID No: 3, Table 1 (GGGGCCACUAGCAUCUCAAAUUUGAGAUGCUAGUGGCCCCUU; listed as RNA, chemistry not given here)
CD73 [3]
  decrease of CD73 enzymatic activity: ~ 90%
CD73 [4]
  CD73 protein expression: efficient in decreasing
U87MG glioma cells [5]; CD73 silencing
  inhibition of U87MG cell proliferation: ~ 40%
U87MG glioma cells [6]; U87MG, CD73 silencing
  glioma cell migration: impaired glioma cell migration

## Nc1ncnc2c1ncn2[C@@H]1O[C@H](COP(=O)(O)CP(=O)(O)O)[C@@H](O)[C@H]1O [AMPCP, adenosine 5′-(α, βmethylene) -diphosphate]
C6 glioma cells
  decrease in cell proliferation: 30%
[1]; 10 μM
  reduction of AMP hydrolysis: 40%
[1]; 100 μM
  reduction of AMP hydrolysis: 50%

## Nc1ncnc2c1ncn2[C@@H]1O[C@H](CO)[C@@H](O)[C@H]1O [adenosine]
U87MG glioma cells [5]; ADO treatment of cells silenced with siRNA-CD73-441
  proliferation of CD73-silenced U87MG cells: restored proliferation
U87MG glioma cells [6]; 24 hours of analysis
  migration of U87MG glioma cells: induced a sustained migration
U87MG glioma cells [6]; adenosine treatment of cells silenced with siRNA-CD73-441
  migratory potential of CD73-silenced glioblastoma cells: promoted recovery of the migratory potential
